The structures appear in SMILES notation.

Assay [1] deals with T1, human GPR120 (Homo sapiens, UniProt Q5NUL3).
T1 sequence (Q5NUL3 1-361): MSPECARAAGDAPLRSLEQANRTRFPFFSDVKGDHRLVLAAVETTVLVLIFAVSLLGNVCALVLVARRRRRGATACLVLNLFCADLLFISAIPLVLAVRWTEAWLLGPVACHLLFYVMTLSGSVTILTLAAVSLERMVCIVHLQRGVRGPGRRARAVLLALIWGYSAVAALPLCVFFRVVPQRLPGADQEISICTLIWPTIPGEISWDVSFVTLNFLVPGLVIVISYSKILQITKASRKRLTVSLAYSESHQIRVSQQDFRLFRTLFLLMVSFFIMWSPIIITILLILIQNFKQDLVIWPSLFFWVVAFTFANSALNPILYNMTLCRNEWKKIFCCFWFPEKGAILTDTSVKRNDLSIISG
Description: Activation of GPR120 receptor. It is filed as cell-based.

Assay [2] concerns the target T2, GPR40 (Mus musculus, UniProt Q76JU9).
T2 construct: Colon lysates (˜900 μg proteins) from 6 mice of each experimental group were pooled; from tissue; host or cells: mouse colon (DSS colitis model)
Description: Co-immunoprecipitation of β-arrestin 2 with GPR40 in colon lysates of DSS mice. Format: in vivo. As to conditions: pooled colon lysates, day 39; compared to DSS or DSS+vehicle. How it is done:
The efficiency of DFL in activating the GPR120 and/or GPR40 receptors was tested.
Agonist-induced GPR120 can engage multiple signalling pathways to regulate distinct physiological outcomes. After ligand binding, B-arrestins, such as B-arrestin 2 can associate with the cytoplasmic domains of GPR120 and couple the receptor to specific downstream signaling pathways (FIG. 9). For this reason, we verified the agonist efficiency in activating GPR120 and GPR40 by immunoprecipitation. Colon lysates (˜900 μg proteins) from 6 mice of each experimental group were pooled, precleared with protein A/G plus-agarose (Santa Cruz) and then incubated with the antibody used for immunoprecipitation (anti-GPR120 or anti-GPR40, Abcam) at 4° C. for 16 h, followed by incubation with protein A/G plus-agarose for 5 h. The agarose beads were then collected by centrifugation, washed four times with lysis buffer, and heated to 95° C. for 5 min after adding Laemmli buffer. The resulting immunoprecipitates were separated by SDS-PAGE and probed with the anti-β-arrestin 2 antibody (Santa Cruz).
Upon western blotting, a densitometric analysis of the blots was performed using Image J. FIGS. 10 and 11 show the ratio between co-immunoprecipitated β-arrestin 2 and GPR120 (FIG. 10) or GPR40 levels (FIG. 11) and the results of the blotting.

Assay [3] relates to DSS-induced colitis. Nature of the assay: Mouse model of Dextran Sodium Sulfate-induced colitis. Format: in vivo, female C57/B16 mice. From the text:
A mouse model of colitis induced by administration of Dextran Sodium Sulfate (DSS) (Wirtz S. et al. Nature Protocols; Volume: 2, Issue: 3 Pages: 541-546; 2007) was used to study the therapeutic effect of oral administration of DFL23806 on colitis.
In details, 8- to 12-week-old female C57/B16 mice were subjected to 3 oral cycles of 2.5% Dextran Sodium Sulfate (DSS) in drinking water (molecular mass, 40 kDa; MP Biomedicals), each cycle characterized by 7 days of DSS administration followed by 7 days of filter-purified water.
From day 3 of DSS administration, the mice were divided in 4 experimental groups, each receiving the treatment specified below: • Group 1: DSS (n=8)
No treatment, used as negative control. • Group 2: DSS+Vehicle (n=8)
Treated with 20% v/v Dimethyl Sulfoxide (DMSO) and 80% v/v Phosphate Buffered Saline (PBS), 0.1 M, pH 8 (Vehicle), used as a negative control. • Group 3: DSS+DFL 90 mg/kg (n=8)
Treated with DFL23806 dissolved in Vehicle, at the dosage of 90 mg/kg once a day. • Group 4: DSS+5-ASA 60 mg/kg (n=8)
Treated with 5-aminosalicylic acid (5-ASA) in Vehicle, at the dosage of 60 mg/Kg once a day, used as reference positive control.
Vehicle, DFL23806 and 5-ASA were administered daily, in the morning, by oral gavage, using plastic sterile feeding tubes 20 ga×30 mm. All mice were sacrificed on day 39.
A DAI score was established based on a scale that considers different parameters characterizing experimental colitis induction and progression (R S Walmsley et al. Gut 1998; 43:29-32).
Body weight, presence of gross blood in the feces, and stool consistency were recorded every 2 days. In details, the DAI was determined at each time point by scoring changes in weight loss (0=none, 1=1%-5%, 2=5%-10%, 3=10%-20%, 4=>20%); stool consistency (0=normal, 2=loose, 4=diarrhea); and rectal bleeding (0=normal, 2=occult bleeding, 4=gross bleeding).
Mice were sacrificed at day 39, colon were collected and colon lengths measured for each mouse, as additional parameter of intestinal inflammation.
The day of sacrifice (day 39), mice were anesthetized with 2% isoflurane and subjected to endoscopy, to confirm the inflammatory grade. The experimental endoscopy setup, denoted “Coloview system”, consisted of a miniature endoscope (scope 1.9 mm outer diameter), a xenon light source, a triple chip camera, and an air pump (all from Karl Storz, Tuttlingen, Germany) to achieve regulated inflation of the mouse colon. The endoscopic procedure was viewed on a colour monitor and a modified murine endoscopic index score of colitis severity was assigned on the basis of colon translucency (0-3 points), granular features of the mucosa (0-3 points), morphology of the vascular pattern (0-4 points), and the presence of fibrin (0-4 points), as previously described by Dr. D'Alessio (D'Alessio, S. et al. J. Clin. Invest. 124, 3863-3878; 2014) leading to a cumulative score between 0 (no signs of inflammation) and […] (endoscopic signs of very severe inflammation).
Histological analysis has been performed by an expert pathologist, in a blinded fashion, to grade the intestinal inflammation. More in details, colons of colitic mice in the various experimental groups have been evaluated for histological analyses using […] paraffin-embedded sections, stained with hematoxylin (Dako) and eosin (Diapath). A blinded pathologist evaluated the degree of inflammatory cell infiltration and mucosal damage, using the RACHMILEWITZ score (Table 1) (Rachmilewitz, D. et al. Gastroenterology 122, 1428-1441; 2002).

Setting [4] is: DFL23806 90 mg/kg oral once a day, versus DSS and DSS+Vehicle groups, already at day 7.
[5] abbreviates: colon, day 39, DFL 90 mg/kg, 5-ASA 60 mg/kg, compared with DSS+Vehicle.
The mark [6] stands for this setting: day 39, DFL23806 90 mg/kg, 5-ASA 60 mg/kg oral once a day, compared to DSS and DSS+Vehicle.

T2 sequence (Q76JU9 whole entry): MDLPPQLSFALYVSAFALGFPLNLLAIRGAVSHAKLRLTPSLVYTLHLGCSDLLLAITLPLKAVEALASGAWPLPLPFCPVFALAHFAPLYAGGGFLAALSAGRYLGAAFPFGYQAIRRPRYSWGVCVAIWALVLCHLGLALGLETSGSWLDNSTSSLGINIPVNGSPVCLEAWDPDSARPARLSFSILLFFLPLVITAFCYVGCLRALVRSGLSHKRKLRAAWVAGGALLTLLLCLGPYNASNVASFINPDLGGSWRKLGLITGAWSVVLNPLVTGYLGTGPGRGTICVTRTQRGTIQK

For the compound `Cc1cc(F)cc(C)c1NS(=O)(=O)c1cccc(CCCCCCC(=O)O)c1` [DFL23806, 7-(3-(N-(4-fluoro-2,6-dimethylphenyl)sulfamoyl)phenyl)heptanoic acid], the AC50 (in general, the concentration giving half of the maximal activity seen) in assay [1] came out at 3.9 µM. In addition, the “GPR40 and β-arrestin 2 association (ratio co-immunoprecipitated β-arrestin 2 / GPR40)” value in assay [2] is given as “no increase”. Besides, in assay [3] (setting [4]), the “DAI (Disease Activity Index) score” value is “significant effect versus the controls” and the “percentage of body weight loss” value is listed as “significant effect versus the controls”. In addition, in assay [3] (DFL23806 90 mg/kg versus 5-ASA 60 mg/kg, at certain time points), the “body weight loss / DAI compared with 5-ASA” value is listed as “even more effective than 5-ASA”. In assay [3] (setting [5]), the “histological score (Rachmilewitz) for extent of flogosis” value was “significantly reduced the histological score”, the “histological score (Rachmilewitz) for extent of ulceration” value is listed as “significantly reduced the histological score”, the “histological score (Rachmilewitz) for flogosis” value is “significantly reduced the histological score” and the “histological score (Rachmilewitz) for ulceration” value is “significantly reduced the histological score”. Further, in assay [3] (setting [6]), the composite endoscopic score result was “significantly inhibit chronic experimental colitis”, the “endoscopic score: colon thickness” value is “significantly inhibit chronic experimental colitis”, the “endoscopic score: mucosal surface granularity” value is recorded as “significantly inhibit chronic experimental colitis” and the “endoscopic score: vascular pattern” value is “significantly inhibit chronic experimental colitis”. Further, the “endoscopic score: visible fibrin” value in assay [3] (setting [6]) is listed as “significantly inhibit chronic experimental colitis”. In assay [3] (day 39, DFL23806 90 mg/kg, 5-ASA 60 mg/kg oral once a day, compared to DSS+vehicle), the colon length entry was “significant inhibitory effect”.

These data come from patent publication US20250177329A1, “GPR120 AGONISTS FOR THE TREATMENT OF INFLAMMATORY BOWEL DISEASE” (Dompe' Farmaceutici SPA, priority 2022, published 2025).
